Assay results from patent US20220009894A1, “1,2,3,4-TETRAHYDROQUINOXALINE DERIVATIVE, PREPARATION METHOD THEREFOR AND APPLICATION THEREOF” (Abbisko Therapeutics Co., Ltd., priority 2019, published 2022).

Columns and labels:
[1] = biological target: T1, RORγt-LBD (Homo sapiens, UniProt P51449); experiment: Time-resolved fluorescence resonance energy-transfer assay (TR-FRET), co-activator peptide recruitment; assay type: biochemical; design: TR-FRET Biochemical Amax: unit not given here; details: for EC50: His-RORγt-LBD 30 nM, SRC peptide 500 nM, agonistic activity, averages of one or more measurements, read-out: TR-FRET Biochemical EC50/; for TR-FRET Biochemical Amax: upper activation limit, His-RORγt-LBD, SRC peptide
T1 sequence (P51449 269-508 limits assumed): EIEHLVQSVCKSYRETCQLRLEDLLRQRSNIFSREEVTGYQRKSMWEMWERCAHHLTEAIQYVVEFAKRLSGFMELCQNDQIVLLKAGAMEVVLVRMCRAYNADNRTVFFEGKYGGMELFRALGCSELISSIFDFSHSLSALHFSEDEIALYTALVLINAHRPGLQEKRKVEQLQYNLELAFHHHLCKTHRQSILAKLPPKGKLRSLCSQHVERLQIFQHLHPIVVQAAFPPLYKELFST
Source text: I. Time-Resolved Fluorescence Resonance Energy-Transfer Assay (TR-FRET)
This experiment was a screening experiment for RORγt nuclear receptor agonists based on TR-FRET technology. When His-labeled RORγt-LBD receptor binds to receptor agonists, it may increase the recruitment of biotin-labeled co-activator peptides. Europium-His-RORγt-LBD is indirectly labeled by donor (Eu) by binding to Eu-anti-His antibody. Once Eu is activated by an energy source (such as flashlight or laser), the energy will be transferred to the co-activator indirectly labeled by allophycocyanin by binding of allophycocyanin-streptavidin and biotin-labeled co-activator. • 1. 10× buffer (500 mM Tris-HCl, 500 mM KCl, and 10 mM Na-EDTA) was prepared, pH value was adjusted to 7.0. The buffer was stored at 4° C. for later use and was restored to normal temperature before experiment; • 2. The 10× buffer was diluted to 1× with pure water. Final concentration of 0.01% Triton X-100 and 1 mM DTT (dithiothreitol) were added to prepare the assay buffer; • 3. DMSO was used to prepare 1000× compound stock solution. The compound solution was serial-diluted in 5-fold for 7 concentrations from the top concentration of 1000 nM/10000 nM. Then the 10× compound solution was prepared with assay buffer. An amount of 2 μL was aliquoted into the 20 μL system; • 4. 5×RORγt-LBD protein solution was unfreezed, and a solution of 5× concentration was prepared with assay buffer to obtain a final concentration of 30 nM. The whole operation was carried out on ice; • 5. 5×SRC peptide was unfreezed, and a solution of 5× concentration was prepared with assay buffer to obtain a final concentration of 500 nM. The whole operation was carried out on ice; • 6. 4 μL/well of RORγt-LBD receptor was added into the testing wells of 384-well plate, and the same amount of assay buffer was added to the control wells of non-RORγt-LBD group; • 7. 2 μL of compound was added into each well of 384-well plate; • 8. 4 μL of SRC peptide was added into each well of 384-well plate; • 9. 2× Eu-anti-6× His/APC-Streptavidin was diluted with Lance detection buffer to a final concentration of 0.25 nM and 5 nM, respectively, and then 10 μL of 2× Eu-anti-6× His/APC-Streptavidin was added into each well of 384-well plate; • 10. The mixed solution was incubated at 4° C. overnight; • 11. On the morning of the next day, the 384-well plate was incubated at room temperature for 1 hr. Then the corresponding signal values were read with PerkinElmer EnVision at a wavelength of 665/615 […]. The agonistic activity of the corresponding compound was calculated with Graphpad Prism 7.0 software.

[2] = biological target: T2, RORγt (Homo sapiens, UniProt P51449); experiment: RORγt cellular reporter gene detection assay; assay type: cell-based; details: 24 hrs; for EC50: HEK 293 cells co-transfected with pFN26A-RORγt-LBD and pG14.35, in presence of antagonist Ursolic acid, top concentration 50 μM; for Cellular Reporter Assay Amax: upper activation limit, HEK 293 cells, in presence of antagonist Ursolic acid;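 for Cellular Reporter Assay Amax: Ursolic Acid added as 5 µL of 20 µM medium per well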
T2 construct: The plasmid of pFN26A-RORγt-LBD and pG14.35 (Promega, Cat. No. E1370) were co-transfected into HEK 293 cells; expressed in transfected cells; host or cells: HEK 293 cells (Cat. No. GNHu18)
T2 sequence (P51449 269-508 limits assumed): T1 sequence (P51449 269-508 limits assumed)
Method: II. RORγt Cellular Reporter Gene Detection Assay
In this experiment, RORγt Reporter Gene Detection method was used to evaluate the activation and specificity of compounds to RORγt in cells. The plasmid of pFN26A-RORγt-LBD and pG14.35 (Promega, Cat. No. E1370) were co-transfected into HEK 293 cells (Cat. No. GNHu18). The efficacy of compounds was evaluated with the presence of an antagonist Ursolic acid (Selleck, Cat. No. S2370-100 mg). The specific experimental process was as follow: • 1. The plasmids-co-transfected cells were inoculated into a 96-well plate (Corning, Cat. No 3610) in a fresh DMEM medium (Gibco, cat. No. 1773536) containing 10% fetal bovine serum (Gibco, Cat. No. 10099-141) at 30000 cells/40 μL/well; • 2. 5 μL of medium containing 20 μM Ursolic acid was added thereto; • 3. The dose effect was evaluated by a 4-fold dilution of the test compound starting from 50 μM; • 4. 5 μL of medium containing a compound concentration of 10-fold of its final test concentration was added; • 5. After the cells were incubated at 37° C. and 5% CO2 for 24 hrs, 50 μL of detection reagent was added to detect firefly fluorescence using PerkinElmerEnVision, and 50 μL of the second detection reagent was added to detect sea kidney fluorescence; • 6. A four-parameter curve simulated in GraphPad Prism was used to determine the concentration for 50% activation (EC50) and the upper activation limit (Amax) for each compound.

Compound | EC50 [1] [µM] | TR-FRET Biochemical Amax [1] | EC50 [2] [µM] | Cellular Reporter Assay Amax [2]
C/C(=C\c1ccc2c(c1)N(S(=O)(=O)c1cccc(C(F)(F)F)c1)C[C@@H]1CN(C(=O)CC#N)CCN21)c1c(F)cccc1Cl [Example 30, (S,E)-3-(8-(2-(2-chloro-6-fluorophenyl)prop-1-en-1-yl)-6-((3-(trifluoromethyl)phenyl)sulfonyl)-1,2,4,4a, 5,6-hexahydro-3H-pyrazino [1,2-a]quinoxalin-3-yl)-3-oxopropanenitrile] | 0.00834 | 0.80 | 0.404 | 4.0
CC1(C)C=C(c2ccc3c(c2)N(S(=O)(=O)c2cccc(C(F)(F)F)c2)C[C@@H]2CN(C[C@@H](O)CO)CCN32)CC(C)(C)O1 [Example 41, (R)-3-((S)-8-(2,2,6,6-tetrameth-yl-3,6-dihydro-2H-pyran-4-yl)-6-((3-(trifluoromethyl)phe-nyl)sulfonyl)-1,2,4,4a,5,6-hexa-hydro-3H-pyrazino[1,2-a]qui-noxalin-3-yl)propane-1,2-diol] | 0.00673 | 1.01 |  | 
C/C(=C\c1ccc2c(c1)N(S(=O)(=O)c1cccc(C(F)(F)F)c1)C[C@@H]1CN(C(C)(C)C(=O)O)CCN21)c1c(F)cccc1Cl [Example 56, (S,E)-2-(8-(2-(2-chloro-6-fluoro-phenyl)prop-1-en-1-yl)-6-((3-(trifluoromethyl)phenyl)sulfo-nyl)-1,2,4,4a,5,6-hexahydro-3H-pyrazino[1,2-a]quinoxalin-3-yl)-2-methylpropanoic acid] | 0.0445 | 0.71 | 0.622 | 3.2
CN1c2ccc(C3=CC(C)(C)OC(C)(C)C3)cc2N(S(=O)(=O)c2cccc(C(F)(F)F)c2)C[C@@H]1CCC(=O)O [Example 118, (S)-3-(1-methyl-6-(2,2,6,6-tetramethyl-3,6-dihydro-2H-pyran-4-yl)-4-((3-(trifluoromethyl)phenyl)sulfonyl)-1,2,3,4-tetrahydroquinoxalin-2-yl)propanoic acid] | 0.204 | 0.36 | 0.223 | 1.0

The next molecules have a lower EC50 [1] than those just listed; values first:

EC50 [1] [µM] | TR-FRET Biochemical Amax [1] | EC50 [2] [µM] | Cellular Reporter Assay Amax [2] | Compound
0.00635 | 0.84 | 0.441 | 4.4 | C/C(=C\c1ccc2c(c1)N(S(=O)(=O)c1cccc(C(F)(F)F)c1)C[C@@H]1CN(C(C)C(=O)O)CCN21)c1c(F)cccc1Cl (stereo partly drawn) [Example 25, 2-((S)-8-((E)-2-(2-chloro-6-fluorophenyl)prop-1-en-1-yl)-6-((3-(trifluoromethyl)phenyl)sulfonyl)-1,2,4,4a,5,6-hexahydro-3H-pyrazino[1,2-a]quinoxalin-3-yl) propanoic acid]
0.00529 | 0.72 | 0.924 | 4.0 | CCOC(=O)CN1CCN2c3ccc(/C=C/c4c(Cl)cccc4C(F)(F)F)cc3N(S(=O)(=O)c3cccc(C(F)(F)F)c3)C[C@@H]2C1 [Example 46, ethyl (S,E)-2-(8-(2-chloro-6-(trifluoromethyl)styryl)-6-((3-(trifluoromethyl)phenyl)sulfonyl)-1,2,4,4a,5,6-hexahydro-3H-pyrazino [1,2-a]quinoxalin-3-yl)acetate]
0.00391 | 1.11 | 0.156 | 1.7 | CC1(C)C=C(c2ccc3c(c2)N(S(=O)(=O)c2cccc(C(F)(F)F)c2)C[C@@H]2CN(C4COC4)CCN32)CC(C)(C)O1 [Example 34, (S)-3-(oxetan-3-yl)-8-(2,2,6,6-tetramethyl-3,6-dihydro-2H-pyran-4-yl)-6-((3-(trifluoro-methyl)phenyl)sulfonyl)-2,3,4,4a,5,6-hexahydro-1H-pyrazino[1,2-a]quinoxaline]
